# Read-outs that look alike come from different tables or passages of the source.
# Key:
# [1] = target: T1, GalNAc-T2 lectin domain (T2ld) (Homo sapiens, UniProt Q10471); test: Direct binding ELISA to GalNAc-MUC1 glycopeptide, competitive inhibition, T2ld
# T1 construct: made in house; host or cells: High Five insect cells (baculovirus, pAcGP67-A)
# T1 sequence (Q10471 408-571): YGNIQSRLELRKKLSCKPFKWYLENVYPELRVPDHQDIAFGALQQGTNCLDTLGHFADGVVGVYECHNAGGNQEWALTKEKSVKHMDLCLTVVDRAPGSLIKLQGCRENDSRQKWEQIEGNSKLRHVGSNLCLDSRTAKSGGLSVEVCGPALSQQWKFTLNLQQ
# Description: (§1) Protein biotinylation was made as previously reported^62. The pH of 1 ml purified protein (0.3 mg/ml) in PBS was adjusted to pH 9 with 1 M NaOH and 40 μl N-hydroxy-succinimidobiotin (Sigma) dissolved in DMF (10 mg/ml) was added. The solution was mixed end-over-end for 2 hours at room temperature, and dialyzed three times against PBS and an equal volume of glycerol was added. The biotinylated proteins were stored at −20° C. in 50% glycerol until use.
# (§2) Direct binding ELISA assay was developed as follows: Polystyrene microtiter plates (Maxisorb, Nunc, Denmark) were coated with peptides or enzymatically glycosylated glycopeptides in PBS overnight at 4° C. Plates were washed and blocked with 0.1% Tween20 and 0.2% BSA in PBS for 1 h at room temperature, followed by incubation with biotinylated proteins in PBS with 0.05% Tween20 for 2 h at room temperature. After four washes with PBS, plates were incubated with 1:2,000 dilution streptavidin-HRP (Sigma) in PBS for 30 min at room temperature and washed four times with PBS. Development was performed with 0.5 mg/ml o-phenylenediamine and 0.02% H2O2 at room temperature for 15 min, and reaction stopped by adding 100 μl/well of 0.5 N H2SO4. Competitive inhibition assays were done at end-point titers of GalNAc-transferase proteins with one hour preincubations with inhibitor.
# (§3) In binding studies using lectins without biotinylation antibodies to the HIS-tag and the T7-tag, or in some experiments antibodies raised to GalNAc-T2 and -T4 enzymes were used to detect binding.
# [2] = target: T2, GalNAc-T4 lectin domain (T4ld) (Homo sapiens, UniProt Q8N4A0); test: Direct binding ELISA to GalNAc-MUC1 glycopeptide, competitive inhibition, T4ld
# T2 construct: made in house; host or cells: High Five insect cells (baculovirus, pAcGP67-A)
# Description: as §1, §2, §3
# [3] = target: T3, secreted soluble GalNAc-T4 (sT4) (Homo sapiens, UniProt Q8N4A0); test: Direct binding ELISA to GalNAc-MUC1 glycopeptide, competitive inhibition, sT4; settings: binding to GalNAc-MUC1 glycopeptide
# T3 construct: using the GalNAc-T4-sol construct that encodes residues 32-578 inserted into pT7T3U19; 6xHis (N); thrombin cleavage site (N); T7 tag (N); made in house; host or cells: High Five insect cells (baculovirus)
# Description: as §1, §2, §3
# [4] = target: T4, secreted soluble GalNAc-T2 (sT2) (Homo sapiens, UniProt Q10471); test: Direct binding ELISA to GalNAc-MUC1 glycopeptide, competitive inhibition, sT2
# T4 construct: HIS-tagged secreted human GalNAc-T2 and -T4 were prepared from pAC-GP67-T2-sol and pAC-GP67-T4-sol cDNA; 6xHis (N); thrombin cleavage site (N); T7 tag (N); made in house; host or cells: High Five insect cells (baculovirus)
# Description: as §1, §2, §3
# [5] = target: Helix Pomatia lectin (HPA) (Helix pomatia, UniProt Q2F1K8); test: Direct binding ELISA, competitive inhibition, Helix Pomatia lectin control; settings: read-out: Concentration required for 50% inhibition (IC50), HPA; control plant lectin
# Source text: Glycopeptides were purified by C-18 reverse phase HPLC. Peptides were custom synthesized by Neosystems (Strasbourg). Biotinylated Helix Pomatia lectin (HPA) was from KemEnTec (Denmark). Anti-MUC1 HMFG2 monoclonal antibody was a generous gift from Joyce Taylor-Papadimitriou. Anti-MUC1 SE5 monoclonal antibody was developed by immunizing Balb/c mice with 60-mer MUC1 tandem repeat peptide glycosylated with 5 moles GalNAc per repeat. Monoclonal antibodies to the lectin domains of human GalNAc-T2 and -T4 were developed as previously described^8, 63.
# as §2
# Inhibition experiments were used to further define the binding specificity of GalNAc-T2 and -T4 secreted soluble enzymes as well as lectin domains compared to Helix Pomatia lectin (Table VII).
# [6] = target: T5, GalNAc-T4 (Homo sapiens, UniProt Q8N4A0); test: Inhibition of glycosylation dependent (GalNAc-glycopeptide) activity of GalNAc-T4, MALDI-TOF time-course; assay type: biochemical; settings: […] free sugar
# T5 construct: using the GalNAc-T4-sol construct that encodes residues 32-578 inserted into pT7T3U19; made in house; host or cells: High Five insect cells (baculovirus, pAcGP67)
# Description: MALDI-TOF time-course in terminal reactions were performed in reactions of 25 μl containing 2.5 nmol acceptor (glyco)peptide, 40 nmol UDP-GalNAc, and 0.4 μg GalNAc-T4. Sampling of reactions (1 μl) were purified by nano-scale reversed-phase chromatography (Poros R3, PerSeptive Biosystem) and applied directly to the probe with matrix (41). The amount of GalNAc-transferase added was adjusted so that the reaction with the appropriate peptide was near completion in six hours. Reactions were incubated at 37° C. in a shaker bath. At times 0, 2 hours, and 16 hours a 1 μl aliquot was taken and purified. Mass spectra were acquired on either Voyager-DE mass spectrometer equipped with delayed extraction (Perseptive Biosystem Inc.). The matrix used was 2,5-dihydroxybenzoic acid (10 mg/ml, Hewlett-Packard) dissolved in a 2:1 mixture of 0.1% trifluoroacetic acid in 30% aqueous acetonitrile (Rathburn Ltd.).
# Quantification of purified proteins was done by Coomassie stained SDS-PAGE and titration of immunoreactivity with the monoclonal antibody, UH6(4G2) (8). […] Wild-type GalNAc-T4 and mutant GalNAc-T4, GalNAc-T4^459H, were analysed with unglycosylated peptides (represented by PSGL-1) or GalNAc glycosylated glycopeptides (represented by GalNAc3TAP25V21) in reactions of 25 μl containing 2.5 nmol acceptor (glyco)peptide, 40 nmol UDP-GalNAc, and 0.4 μg GalNAc-T4. Time-course assays were motioned by MALDI-TOF. Sampling of reactions (1 μl) were purified by nano-scale reversed-phase chromatography (Poros R3, PerSeptive Biosystem) and applied directly to the probe with matrix. Evaluation of inhibition of the glycopeptide specificity of wild-type GalNAc-T4 with free sugars was performed to establish if the lectin domain recognized carbohydrate. […] Further, analysis was performed with 10 mM α-D-GalNAc-1-benzyl, αGlcNAc-benzyl, and fully occupied GalNAc-glycopeptide, GalNAc6TAP25, at 5 mM.
# [7] = read-out: Concentration required for 50% inhibition (IC50), T2ld
# [8] = read-out: Concentration required for 50% inhibition (IC50), T4ld
# [9] = read-out: Concentration required for 50% inhibition (IC50), sT4
# [10] = read-out: Concentration required for 50% inhibition (IC50), sT2
smiles,measurement,setting,value
"COC1O[C@H](CO)[C@H](O)[C@H](O)[C@H]1O (single isomer, unassigned) [MeβGal]",IC50,[1],> 100 mM
same,IC50,[2],> 100 mM
same,IC50,[3],40 mM
same,IC50,[4],> 100 mM
CC(=O)N[C@H]1[C@H](OCc2ccccc2)O[C@H](CO)[C@@H](O)[C@@H]1O [BzlβGlcNAc],IC50,[1],> 100 mM
same,IC50,[2],> 100 mM
same,IC50,[5],> 20 mM
same,IC50,[3],> 100 mM
same,IC50,[4],> 100 mM
C[C@@H]1OC(O)[C@@H](O)[C@H](O)[C@@H]1O (stereo partly drawn) [Fuc],Inhibition of glycosylation dependent specificity of GalNAc-T4,[6],failed to show significant inhibition
OC[C@H]1OC(O)[C@H](O)[C@@H](O)[C@H]1O (stereo partly drawn) [Gal],Inhibition of glycosylation dependent specificity of GalNAc-T4,[6],failed to show significant inhibition
CC(=O)N[C@H]1C(O)O[C@H](CO)[C@@H](O)[C@@H]1O (stereo partly drawn) [GlcNAc],Inhibition of glycosylation dependent specificity of GalNAc-T4,[6],failed to show significant inhibition
same,IC50,[1]; [7],> 100 mM
same,IC50,[2]; [8],> 100 mM
same,IC50,[5],8 mM
same,IC50,[3]; [9],> 100 mM
same,IC50,[4]; [10],> 100 mM
CO[C@H]1O[C@H](CO)[C@H](O)[C@H](O)[C@H]1O [MeαGal],IC50,[1]; [7],> 100 mM
same,IC50,[2]; [8],> 100 mM
same,IC50,[5],> 100 mM
same,IC50,[3]; [9],50 mM
same,IC50,[4]; [10],> 100 mM
CC(=O)N[C@H]1[C@@H](Oc2ccccc2)O[C@H](CO)[C@H](O)[C@@H]1O [PhlαGalNAc],IC50,[1]; [7],15 mM
same,IC50,[5],1 mM

# Reference: US7338932B2, “Methods of modulating functions of polypeptide GalNAc-transferases and of screening test substances to find agents herefor, pharmaceutical compositions comprising such agents and the use of such agents for preparing medicaments” (Glycozym APS, priority 2000, dated 2008)
